ChEMBL document CHEMBL5113511, “Discovery of Small-Molecule Degraders of the CDK9-Cyclin T1 Complex for Targeting Transcriptional Addiction in Prostate Cancer” (J Med Chem, 2022)
Calls of active or inactive are those of the source. The rule behind the calls is not given here.

Experiments:
[1] = target: T1, Cyclin-T1 (Homo sapiens, UniProt O60563); test: Induction of HyT-mediated degradation of Cyclin T1 in human 22Rv1 cells at 0.3 to 3 uM incubated for 24 hrs by immunoblot analysis; assay type: cell-based; settings: dose 0.3-3 µM
[2] = target: T2, Cyclin-dependent kinase 9 (Homo sapiens, UniProt P50750); test: Induction of HyT-mediated degradation of CDK9 in human 22Rv1 cells incubated for 24 hrs by immunoblot analysis; assay type: cell-based
[3] = target: T1, Cyclin-T1; test: Induction of HyT-mediated degradation of Cyclin T1 in human 22Rv1 cells incubated for 24 hrs by immunoblot analysis; assay type: cell-based
[4] = target: Cyclin-T2 (Homo sapiens) (UniProt O60583); test: Induction of HyT-mediated degradation of cyclin T2 in human 22Rv1 cells assessed as reduction in cyclin T2 level at 3 to 6 uM incubated for 24 hrs by immunoblot analysis; assay type: cell-based; settings: dose 3-6 µM
[5] = target: T1, Cyclin-T1; test: Induction of Hyt-mediated degradation of cyclin T1 in human 22Rv1 cells assessed as downregulation of cyclin T1 level at 2 uM incubated for 24 hrs by DIA-based proteomics analysis; assay type: cell-based
[6] = target: T2, Cyclin-dependent kinase 9; test: Induction of Flag-tagged CDK9 (unknown origin) polyubiquitination expressed in HEK293T cells co-transfected with HA-tagged Cyclin T1 and Myc ubiquitin assessed as increase in K48-linkage poly-ubiqutinated CDK9 level at 1 to 2 uM incubated for 20 hrs by immunoprecipitation analysis; assay type: cell-based; settings: dose 1-2 µM
[7] = target: T1, Cyclin-T1; test: Induction of HA-tagged Cyclin T1 (unknown origin) polyubiquitination expressed in HEK293T cells co-transfected with Flag-tagged CDK9 and Myc ubiquitin assessed as increase in K48-linkage poly-ubiqutinated Cyclin T1 level at 1 to 2 uM incubated for 20 hrs by western blot analysis; assay type: cell-based; settings: dose 1-2 µM
[8] = system: CWR22R; test: Downregulation of CDK4 level in human 22Rv1 cells at 3 uM measured after 12 hrs by DIA-based proteomics analysis; assay type: functional, cell-based
[9] = target: T2, Cyclin-dependent kinase 9; test: Induction of HyT-mediated degradation of CDK9 in human 22Rv1 cells at 3 uM measured after 5 to 18 hrs by immunoblot analysis; assay type: cell-based; settings: time 5-18 hrs
[10] = target: T1, Cyclin-T1; test: Induction of HyT-mediated degradation of Cyclin T1 in human 22Rv1 cells at 3 uM measured after 5 to 18 hrs by immunoblot analysis; assay type: cell-based; settings: time 5-18 hrs
[11] = target: T2, Cyclin-dependent kinase 9; test: Induction of HyT-mediated degradation of CDK9 in human 22Rv1 cells assessed as reduction in CDK9 protein level at 3 uM measured after 24 to 48 hrs by immunoblot analysis; assay type: cell-based; settings: time 24-48 hrs
[12] = target: T3, CDK9/cyclin T1 (Homo sapiens) (UniProt O60563+P50750); test: Induction of CDK9/Cyclin T1 degradation in human 22Rv1 cells assessed as decrease in cyclin A2 protein expression at 3 uM measured for 36 hrs by DIA-based proteomics analysis; assay type: cell-based
[13] = target: T3, CDK9/cyclin T1 (Homo sapiens); test: Induction of CDK9/Cyclin T1 degradation in human 22Rv1 cells assessed as decrease in cyclin C protein expression at 3 uM measured for 36 hrs by DIA-based proteomics analysis; assay type: cell-based
[14] = target: T3, CDK9/cyclin T1 (Homo sapiens); test: Induction of CDK9/Cyclin T1 degradation in human 22Rv1 cells assessed as downregulation of JMJD6 protein expression at 3 uM measured after 36 hrs by DIA-based proteomics analysis; assay type: cell-based
[15] = target: T3, CDK9/cyclin T1 (Homo sapiens); test: Induction of CDK9/Cyclin T1 degradation in human 22Rv1 cells assessed as downregulation of JMJD6 protein expression at 2 uM measured after 24 hrs by immunoblot analysis; assay type: cell-based
[16] = target: T3, CDK9/cyclin T1 (Homo sapiens); test: Induction of CDK9/Cyclin T1 degradation in human 22Rv1 cells assessed as downregulation of AR protein expression at 3 uM measured for 36 hrs by DIA-based proteomics analysis; assay type: cell-based
[17] = target: T3, CDK9/cyclin T1 (Homo sapiens); test: Induction of CDK9/Cyclin T1 degradation in human 22Rv1 cells assessed as downregulation of AR protein expression at 2 uM measured after 48 hrs by immunoblot analysis relative to control; assay type: cell-based
[18] = target: T3, CDK9/cyclin T1 (Homo sapiens); test: Induction of CDK9/Cyclin T1 degradation in human 22Rv1 cells assessed as downregulation of AR-V7 splice variant protein expression at 2 uM measured after 24 hrs by immunoblot analysis; assay type: cell-based
[19] = target: T3, CDK9/cyclin T1 (Homo sapiens); test: Induction of CDK9/Cyclin T1 degradation in human 22Rv1 cells assessed as downregulation of c-Myc protein expression at 2 uM measured after 48 hrs by immunoblot analysis; assay type: cell-based
[20] = target: T3, CDK9/cyclin T1 (Homo sapiens); test: Induction of CDK9/Cyclin T1 degradation in human 22Rv1 cells assessed as downregulation of AR protein expression at 0.3 to 3 uM measured after 24 hrs by immunoblot analysis; assay type: cell-based; settings: dose 0.3-3 µM
[21] = system: CWR22R; test: Induction of cell cycle arrest in human 22Rv1 cells assessed as accumulation of cells at G1 phase at 0.3 to 1 uM incubated for 24 hrs by propidium iodide staining based flow cytometry; assay type: functional; settings: dose 0.3-1 µM
[22] = system: CWR22R; test: Induction of cell cycle arrest in human 22Rv1 cells assessed as accumulation of cells at sub-G1 phase at 0.3 to 1 uM incubated for 24 hrs by propidium iodide staining based flow cytometry; assay type: functional; settings: dose 0.3-1 µM
[23] = system: CWR22R; test: Induction of apoptosis in human 22Rv1 cells at 0.3 to 1 uM incubated for 24 hrs by AnnexinV-FITC/PI staining based flow cytometry; assay type: functional, cell-based; settings: dose 0.3-1 µM
[24] = target: T3, CDK9/cyclin T1 (Homo sapiens); test: Induction of CDK9/Cyclin T1 degradation in human 22Rv1 cells assessed as downregulation of NKX3-1 protein expression at 0.3 to 3 uM incubated fo 24 hrs by immunoblot analysis; assay type: cell-based; settings: dose 0.3-3 µM
[25] = target: T3, CDK9/cyclin T1 (Homo sapiens); test: Induction of CDK9/Cyclin T1 degradation in human 22Rv1 cells assessed as downregulation of NKX3-1 gene expression at 2 uM incubated for 24 hrs by RNA-Seq based analysis; assay type: cell-based
[26] = target: T3, CDK9/cyclin T1 (Homo sapiens); test: Induction of CDK9/Cyclin T1 degradation in human 22Rv1 cells assessed as downregulation of CDK20 gene expression at 2 uM incubated for 24 hrs by RNA-Seq based analysis; assay type: cell-based
[27] = target: T3, CDK9/cyclin T1 (Homo sapiens); test: Induction of CDK9/Cyclin T1 degradation in human 22Rv1 cells assessed as downregulation of KLK15 gene expression at 2 uM incubated for 24 hrs by RNA-Seq based analysis; assay type: cell-based
[28] = target: T3, CDK9/cyclin T1 (Homo sapiens); test: Induction of CDK9/Cyclin T1 degradation in human 22Rv1 cells assessed as downregulation of IKBKE gene expression at 2 uM incubated for 24 hrs by RNA-Seq based analysis; assay type: cell-based
[29] = target: T3, CDK9/cyclin T1 (Homo sapiens); test: Induction of CDK9/Cyclin T1 degradation in human 22Rv1 cells assessed as downregulation of WNT2 gene expression at 2 uM incubated for 24 hrs by RNA-Seq based analysis; assay type: cell-based
[30] = target: T3, CDK9/cyclin T1 (Homo sapiens); test: Induction of CDK9/Cyclin T1 degradation in human 22Rv1 cells assessed as downregulation of CCNE2 gene expression at 2 uM incubated for 24 hrs by RNA-Seq based analysis; assay type: cell-based
[31] = target: T3, CDK9/cyclin T1 (Homo sapiens); test: Induction of CDK9/Cyclin T1 degradation in human 22Rv1 cells assessed as downregulation of NOTCH1 gene expression at 2 uM incubated for 24 hrs by RNA-Seq based analysis; assay type: cell-based
[32] = target: T3, CDK9/cyclin T1 (Homo sapiens); test: Induction of CDK9/Cyclin T1 degradation in human 22Rv1 cells assessed as downregulation of TP53 gene expression at 2 uM incubated for 24 hrs by RNA-Seq based analysis; assay type: cell-based
[33] = target: T3, CDK9/cyclin T1 (Homo sapiens); test: Induction of CDK9/Cyclin T1 degradation in human 22Rv1 cells assessed as downregulation of SLC1A5 gene expression at 2 uM incubated for 24 hrs by RNA-Seq based analysis; assay type: cell-based

T2 sequence (P50750 whole entry): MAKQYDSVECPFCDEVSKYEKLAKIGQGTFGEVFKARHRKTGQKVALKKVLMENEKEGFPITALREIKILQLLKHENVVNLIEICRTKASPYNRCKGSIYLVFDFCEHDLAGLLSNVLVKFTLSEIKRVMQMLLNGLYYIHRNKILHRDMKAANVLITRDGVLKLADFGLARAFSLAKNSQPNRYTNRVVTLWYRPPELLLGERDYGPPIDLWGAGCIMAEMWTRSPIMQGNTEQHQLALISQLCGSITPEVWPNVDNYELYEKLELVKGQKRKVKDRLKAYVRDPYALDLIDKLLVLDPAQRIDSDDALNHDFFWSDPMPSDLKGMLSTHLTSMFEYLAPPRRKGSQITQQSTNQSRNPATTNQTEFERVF
T1 sequence (O60563 whole entry): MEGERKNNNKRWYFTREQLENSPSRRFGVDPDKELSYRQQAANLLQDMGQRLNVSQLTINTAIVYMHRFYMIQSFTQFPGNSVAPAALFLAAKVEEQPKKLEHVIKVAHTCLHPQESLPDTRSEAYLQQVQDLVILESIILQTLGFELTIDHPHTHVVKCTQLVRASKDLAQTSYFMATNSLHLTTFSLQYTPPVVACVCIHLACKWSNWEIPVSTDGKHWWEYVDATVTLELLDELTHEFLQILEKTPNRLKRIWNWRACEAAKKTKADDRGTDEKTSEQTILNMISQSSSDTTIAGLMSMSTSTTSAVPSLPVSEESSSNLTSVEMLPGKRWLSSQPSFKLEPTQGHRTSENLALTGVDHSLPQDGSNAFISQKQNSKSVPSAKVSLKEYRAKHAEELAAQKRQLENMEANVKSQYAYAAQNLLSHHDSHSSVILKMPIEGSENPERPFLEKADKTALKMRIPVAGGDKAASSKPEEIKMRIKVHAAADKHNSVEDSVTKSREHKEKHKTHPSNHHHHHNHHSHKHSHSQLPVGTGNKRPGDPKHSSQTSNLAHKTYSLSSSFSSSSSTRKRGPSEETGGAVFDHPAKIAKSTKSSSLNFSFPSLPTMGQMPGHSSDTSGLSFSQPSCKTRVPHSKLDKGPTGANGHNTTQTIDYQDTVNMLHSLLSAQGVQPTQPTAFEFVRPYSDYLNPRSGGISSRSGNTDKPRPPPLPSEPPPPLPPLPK
Sequence of Cyclin-T2 (Homo sapiens) (O60583 whole entry): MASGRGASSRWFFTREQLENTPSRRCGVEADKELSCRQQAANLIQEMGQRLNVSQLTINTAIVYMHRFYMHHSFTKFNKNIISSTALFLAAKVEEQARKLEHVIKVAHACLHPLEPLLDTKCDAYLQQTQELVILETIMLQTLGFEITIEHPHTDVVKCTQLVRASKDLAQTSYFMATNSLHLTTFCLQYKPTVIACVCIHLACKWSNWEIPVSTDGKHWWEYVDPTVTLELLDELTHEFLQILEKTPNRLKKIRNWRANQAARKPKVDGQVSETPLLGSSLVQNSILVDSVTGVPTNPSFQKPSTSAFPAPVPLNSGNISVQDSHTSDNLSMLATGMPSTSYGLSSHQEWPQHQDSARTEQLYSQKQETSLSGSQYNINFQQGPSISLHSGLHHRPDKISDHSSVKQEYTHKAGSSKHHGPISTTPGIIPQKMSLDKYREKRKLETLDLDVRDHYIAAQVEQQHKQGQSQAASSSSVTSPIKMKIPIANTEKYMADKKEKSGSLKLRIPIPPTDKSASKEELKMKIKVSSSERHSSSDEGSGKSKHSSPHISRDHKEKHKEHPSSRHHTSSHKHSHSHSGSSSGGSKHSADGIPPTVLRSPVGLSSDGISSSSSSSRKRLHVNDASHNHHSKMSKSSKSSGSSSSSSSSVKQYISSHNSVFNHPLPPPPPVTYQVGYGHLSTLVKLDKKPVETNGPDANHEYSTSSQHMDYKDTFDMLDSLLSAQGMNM

With `CC(C)[C@@H]1CC[C@@H](C)C[C@H]1OCC(=O)NCCS(=O)(=O)N1CCC(C(=O)Nc2ncc(SCc3ncc(C(C)(C)C)o3)s2)CC1` the Activity [1] was “Active”, the DC50 [2] was 0.662 µM and the DC50 [3] was 0.589 µM. For the same molecule, the Activity [4] was “Active”, the Activity [5] was “Active” and the Activity [6] was “Active”. The Activity [7] was “Active”, the inhibition [8] was “Active” and the Activity [9] was “Active”. The Activity [10] was “Active”, the Activity [11] was “Active” and the Activity [12] was “Active”. For the same molecule, the Activity [13] was “Active”, the Activity [14] was “Active” and the Activity [15] was “Active”. For the same molecule, the Activity [16] was “Active”, the Activity [17] was 100% and the Activity [18] was “Active”. The Activity [19] was “Active”, the Activity [20] was “Active” and the Activity [21] was “Active”. For the same molecule, the Activity [22] was “Active”, the Activity [23] was “Active” and the Activity [24] was “Active”. For the same molecule, the Activity [25] was “Active”, the Activity [26] was “Active” and the Activity [27] was “Active”. The Activity [28] was “Active”, the Activity [29] was “Active” and the Activity [30] was “Active”. The Activity [31] was “Active”, the Activity [32] was “Active” and the Activity [33] was “Active”.
